The record followed here is patent US20050214285A1, “Epitopes or mimotopes derived from the C-epsilon-3 or C-epsilon-4 domains of IgE, antagonists thereof, and their therapeutic uses” (SmithKline Beecham Biologicals, s.a. and Peptide …, priority 1999, published 2005).

For this assay, the system named is PTmAb0005. Put plainly: Phage display ranking of peptide ligands for PTmAb0005. Conditions: for Rel. Rank A / Rel. Rank B: IgEC67-8 mutants (Table 9); for Rank (ECL) PTmAb0005: primary phage display biopannings (Table 6). The assay is classed as binding. Here is the method: Phage display libraries were used to map the binding sites of the monoclonal antibodies using three different phage libraries, displaying either the XCX15, XCX10 or XAX10 peptide sequence (where X is any amino acid) at the N-terminus of the phage gVIIIp. Tables 6 and 7 show the results of selecting for peptide ligands with the anti human IgE monoclonal antibodies […]. […]
This was performed by introducing random mutations by PCR mutagenesis and sub-cloning into the Fuse 5 vector for minor filamentous phage protein gIIIp display. These, and other results, confirmed the importance of the amino acids within IgEC67 which aligned with the Cε2 epitope. […] Mutations in other sites had little effect on the affinity to PTmAb0005.
This involved a DNA sub-cloning transfer from the major coat protein (gVIIIp) filamentous phage display vector to a lower copy number minor phage coat protein (gIIIp) display vector with a random PCR step. […] Included in the tables are ranking orders and also BIAcore affinities where available.

As to “ADGAECFINKQMADRELCAREVAEA [Peptide 2-12, IgEC67-8 mutant clone]”, the “Rel. Rank A” value is listed as 1.22 and the “Rel. Rank B” value was determined as 1.50. For “ADGAECFINKQRADLELCPGEAAEA [4-2,4-3, IgEC67-8 mutant clone]”, in that order: 1.11 and 1.60. As for “ADGAECFINRQMADLELCGREAAEA [Peptide 4-4, IgEC67-8 mutant clone]”, the “Rel. Rank A” value is listed as 0.69 and the “Rel. Rank B” value was found to be 1.03. In the case of “ADGAGCFIDKQMADLELCPRAAAEA [1-9,2-5, IgEC67-8 mutant clone]”, the “Rel. Rank A” value is listed as 1.21 and the “Rel. Rank B” value turned out to be 1.41. Regarding “ADGAGCFIEKQMADMELCQARAAEA [Peptide 1-8, IgEC67-8 mutant clone]”, the “Rel. Rank A” value was 1.08 and the “Rel. Rank B” value is 1.32. In the case of “ADGAGCFIEKQMADMELCQRETAEA [Peptide 1-1, IgEC67-8 mutant clone]”, the “Rel. Rank A” value came to 1.04 and the “Rel. Rank B” value turned out to be 1.29. As to “ADGAGCFIKKQMADLELCPREAWEA [Peptide 4-1, IgEC67-8 mutant clone]”, the “Rel. Rank A” value is 1.24 and the “Rel. Rank B” value stood at 1.52. For “ADGAGCFINKQMADLELCPARAAEA [Peptide 1-7, IgEC67-8 mutant clone]”, the “Rel. Rank A” value is on record as 0.91 and the “Rel. Rank B” value was 1.25. As for “ADGAGCFINKQMADLELCPREAAEA [2-8,1-13,4-11,1-14, IgEC67-8 sub-library clone]”, the “Rel. Rank A” value is listed as 1.00 and the “Rel. Rank B” value turned out to be 1.00. Consider “ADGAGCFINKQMADLELCPREGAEA [1-4,1-2,1-12, IgEC67-8 mutant clone]”, for which the “Rel. Rank A” value is 1.37 and the “Rel. Rank B” value is given as 1.39. As for “ADGAGCFINKQMADLELCPRQAAEA [3-1,3-9,3-10, IgEC67-8 mutant clone]”, the “Rel. Rank A” value came to 1.54 and the “Rel. Rank B” value turned out to be 1.85. As for “ADGAGCFINKQMADLELCPSQAAEA [Peptide 4-9, IgEC67-8 mutant clone]”, the “Rel. Rank A” value was determined as 1.38 and the “Rel. Rank B” value is 1.70. Take “ADGAGCFINKQMADLELCRREAGEA [2-9,2-6, IgEC67-8 mutant clone]”: the “Rel. Rank A” value is reported as 1.19 and the “Rel. Rank B” value is reported as 1.54. For “ADGAGCFINKQMADLELCTREAAEA [Peptide 3-11, IgEC67-8 mutant clone]”, in that order: 1.54 and 2.02. Take “ADGAGCFINKQMADMELCPREAAEA [Peptide 2-3, IgEC67-8 mutant clone]”: the “Rel. Rank A” value worked out at 1.03 and the “Rel. Rank B” value stood at 1.31. For “ADGAGCFINKQMADSELCPAAAAEA [Peptide 1-10, IgEC67-8 mutant clone]”, in that order: 1.10 and 1.08.

In the case of “ADGAGCFINKQMADSELCPREPAEA [Peptide 5-16, IgEC67-8 mutant clone]”, the “Rel. Rank A” value stood at 1.29 and the “Rel. Rank B” value stood at 1.83. For “ADGAGCFINKQMADWELCPREAAEA [Peptide 5-10, IgEC67-8 mutant clone]”, in that order: 1.05 and 1.83. In the case of “ADGAGCFINKQMADWELCPREGAEA [Peptide 2-15, IgEC67-8 mutant clone]”, the “Rel. Rank A” value is given as 1.44 and the “Rel. Rank B” value worked out at 1.57. For “ADGAGCFINKQMSDFELCPREAGEA [Peptide 2-13, IgEC67-8 mutant clone]”, in that order: 1.56 and 2.14. For “ADGAGCFINMQMADQELCPRAAAEA [Peptide 1-3, IgEC67-8 mutant clone]”, the “Rel. Rank A” value was 1.73 and the “Rel. Rank B” value was 1.31. On to “ADGAGCFINNQMADLELCPREAAEA [Peptide 5-2, IgEC67-8 mutant clone]”, for which the “Rel. Rank A” value amounted to 1.04 and the “Rel. Rank B” value came out at 1.24. With “ADGAGCFINNQMADLELCPRGGAEA [Peptide 1-11, IgEC67-8 mutant clone]”, the “Rel. Rank A” value is on record as 1.45 and the “Rel. Rank B” value stood at 1.32. Take “ADGAGCFINRQLADMELCSRGAAEA [2-11,2-4,2-10,2-7, IgEC67-8 mutant clone]”: the “Rel. Rank A” value was determined as 0.79 and the “Rel. Rank B” value is recorded as 1.39. For “ADGAGCFINRQMADPELCPREAAEA [Peptide 5-11, IgEC67-8 mutant clone]”, in that order: 1.09 and 1.97.

On to “ADGAGCFISPQLADWKRCMREAAEA [6-9,5-1,6-2,6-8,6-4]”, for which the “Rel. Rank A” value is reported as 1.53 and the “Rel. Rank B” value stood at 1.19. In the same order, the values of “ADGAGCFKNKQMVDSELCARQAAEA [Peptide 1-16, IgEC67-8 mutant clone]” are 1.14 and 1.17. Regarding “ADGAGCFQNKQMADLELCPREAAEA [Peptide 1-5, IgEC67-8 mutant clone]”, the “Rel. Rank A” value is recorded as 1.13 and the “Rel. Rank B” value came to 1.73.

Consider “ADGAGCFRNKQMADLELCPREAAEA [Peptide 1-6, IgEC67-8 mutant clone]”, for which the “Rel. Rank A” value is listed as 0.95 and the “Rel. Rank B” value is recorded as 1.16.

Consider “ADGAGCSIHRQMADWERCLREGAEA [Peptide 6-10]”, for which the “Rel. Rank A” value stood at 0.91 and the “Rel. Rank B” value is 0.69. On to ADGAGCSIHTQMADWERCLREGAEA [6-12,5-8], for which the “Rel. Rank A” value is listed as 0.93 and the “Rel. Rank B” value is recorded as 0.67. In the case of AENDQMVDWEI [SB21/33/31], the “Rank (ECL) PTmAb0005” value amounted to 0.

In the case of CAPGMGCWESVK [ESB13], the “Rank (ECL) PTmAb0005” value is listed as 0. For the sequence CCESDIPLNELHALADP [IgEC70], the “Rank (ECL) PTmAb0005” value was determined as 0. As for CCEVDDFPTHHPGWTLR [ESC4], the “Rank (ECL) PTmAb0005” value worked out at 0. Regarding CCITDVPQGVMYKGSPD [ESC18], the “Rank (ECL) PTmAb0005” value came to 0. For CCKSDIPSPVTQFNTMK [IgEC64], the “Rank (ECL) PTmAb0005” value is recorded as 0. Turning to CCLSDDAPTLPVRR [IgEC75], the “Rank (ECL) PTmAb0005” value was determined as 0. As for CCMADQELDLGHNAANA [ESC20], the “Rank (ECL) PTmAb0005” value stood at 0. For CCMSDTPDISRLPVPDS [IgEC72], the “Rank (ECL) PTmAb0005” value came to 0. For the sequence CCMTDDPMDPNSTWAIR [ESC12], the “Rank (ECL) PTmAb0005” value worked out at 0. CCMTDDPMYTNSTWAIR [ESC43]: the “Rank (ECL) PTmAb0005” value was found to be 0. For the sequence CCQRDVELVFGS [ESD38], the “Rank (ECL) PTmAb0005” value amounted to 0. Take CCRADFEVGNGG [ESD15]: the “Rank (ECL) PTmAb0005” value worked out at 0.

For CCVDDTPNSGLAMRVSK [ESC1], the “Rank (ECL) PTmAb0005” value is 0. For CCVMDIEVRGSA [ESD14], the “Rank (ECL) PTmAb0005” value worked out at 0. As for CCVMDLELASGF [ESD36], the “Rank (ECL) PTmAb0005” value was found to be 0. Take CCVSDEPAGVRD [ESD6/10/40]: the “Rank (ECL) PTmAb0005” value is recorded as 0.

In the case of CQAMDAEILNQV [ESB12], the “Rank (ECL) PTmAb0005” value came out at 0.

On to ECKVDGQLSDSPLLRNN [ESC45], for which the “Rank (ECL) PTmAb0005” value was 0. Consider ECRGPNMQMQDHCPTTD [IgEC9], for which the “Rank (ECL) PTmAb0005” value came to 10. With GGWQESDIPGR [ESB32], the “Rank (ECL) PTmAb0005” value was found to be 0.

Regarding GQMMDTELLNR [ESB1/6etc], the “Rank (ECL) PTmAb0005” value is listed as 0. For the sequence HCCRIDREVSGA [ESB24], the “Rank (ECL) PTmAb0005” value is 0.
